Assay results as given in PubChem BioAssay (NCI).
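Method: 48-hour compound exposure of cells in 96-well plates, five concentrations, linear interpolation of endpoints. GI50 = concentration required for 50% inhibition of growth. The concentration for full growth arrest is given as TGI.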

Assays:
Experiment in all cases: NCI tumour cell line growth inhibition, 48 h
SNB-78 CNS = system: SNB-78 CNS
SN12K1 renal = system: SN12K1 renal
P388/ADR leukemia = system: P388/ADR leukemia
XF 498 CNS = system: XF 498 CNS
HOP-18 NSCLC = system: HOP-18 NSCLC
DMS 114 small cell lung = system: DMS 114 small cell lung
KM20L2 colon = system: KM20L2 colon
P388 leukemia = system: P388 leukemia
M19-MEL melanoma = system: M19-MEL melanoma
A498 renal = system: A498 renal
DMS 273 small cell lung = system: DMS 273 small cell lung
DLD-1 colon = system: DLD-1 colon
NCI-H522 lung = system: NCI-H522 lung
SR leukemia = system: SR leukemia
T-47D breast = system: T-47D breast
TK-10 renal = system: TK-10 renal
BT-549 breast = system: BT-549 breast
M14 melanoma = system: M14 melanoma

`C=C1C(=O)OC2CC(C)C3C4OC4C(O)C3(C)C(O)C12` (stereo unspecified) was tested, and the TGI (SNB-78 CNS) was 61.6 µM, the TGI (SN12K1 renal) was 70.8 µM and the TGI (P388/ADR leukemia) was 49.3 µM. The TGI (XF 498 CNS) was 47.4 µM, the TGI (HOP-18 NSCLC) was 72.4 µM and the TGI (DMS 114 small cell lung) was 45.9 µM. For the same compound, the TGI (KM20L2 colon) was 42.8 µM, the TGI (P388 leukemia) was 43.7 µM and the TGI (M19-MEL melanoma) was 69.7 µM. The TGI (A498 renal) was 44.4 µM, the TGI (DMS 273 small cell lung) was 67.2 µM and the TGI (DLD-1 colon) was 87.8 µM. For the same compound, the TGI (NCI-H522 lung) was 26.4 µM.
With `COc1ccc(-c2c(-c3ccccc3)c(C)nc3nc(SC)nc(SC)c23)cc1OC` the TGI (SR leukemia) was 2.6 µM, the TGI (T-47D breast) was over 100 µM and the TGI (TK-10 renal) was over 100 µM. The TGI (BT-549 breast) was over 100 µM, the TGI (A498 renal) was 56.9 µM and the TGI (NCI-H522 lung) was 35.4 µM. The TGI (M14 melanoma) was over 100 µM.
With `CCCCOP(C)(=O)C(NC(=O)OCC)(C(F)(F)F)C(F)(F)F` (stereo unspecified) the TGI (SR leukemia) was over 100 µM, the TGI (T-47D breast) was over 100 µM and the TGI (TK-10 renal) was over 100 µM. For the same compound, the TGI (BT-549 breast) was over 100 µM, the TGI (A498 renal) was over 100 µM and the TGI (NCI-H522 lung) was over 100 µM. For the same compound, the TGI (M14 melanoma) was over 100 µM.
For `CC12CCC(CC1)C(C)(C)O2`, the TGI (SNB-78 CNS) was 261 µM, the TGI (SN12K1 renal) was 110 µM and the TGI (P388/ADR leukemia) was 42.6 µM. It also gave a TGI (XF 498 CNS) of 5.51 µM, a GI50 (HOP-18 NSCLC) of 16.7 µM and a TGI (HOP-18 NSCLC) of 88.5 µM. For the same compound, the TGI (DMS 114 small cell lung) was 123 µM, the TGI (KM20L2 colon) was 116 µM and the TGI (P388 leukemia) was 55.7 µM. For the same compound, the TGI (M19-MEL melanoma) was 64.5 µM, the TGI (A498 renal) was 99.6 µM and the TGI (DMS 273 small cell lung) was 18.3 µM. For the same compound, the TGI (DLD-1 colon) was 103 µM and the TGI (NCI-H522 lung) was 77.3 µM.
`CC(C)c1ccccc1SCc1cc(=O)cc(CSc2ccccc2C(C)C)o1` showed a TGI (SR leukemia) of over 100 µM, a TGI (T-47D breast) of over 100 µM and a TGI (TK-10 renal) of 38.7 µM. It also gave a TGI (A498 renal) of 40.9 µM and a TGI (M14 melanoma) of 49.5 µM.
For `Cc1cccc(N2C(=O)C3c4[nH]c5ccc(C)cc5c4C4CCC(C(C)(C)C)CC4C3C2=O)c1` (stereo unspecified), the TGI (T-47D breast) was 52.1 µM, the TGI (TK-10 renal) was 59.8 µM and the TGI (BT-549 breast) was over 100 µM. It also gave a TGI (NCI-H522 lung) of 45.7 µM and a TGI (M14 melanoma) of over 100 µM.
Work on `CSc1nc(N)c2c(-c3ccccc3)c3c(nc2n1)CCCC3` yielded a TGI (SR leukemia) of over 100 µM, a TGI (T-47D breast) of over 100 µM and a TGI (TK-10 renal) of over 100 µM. For the same compound, the TGI (BT-549 breast) was over 100 µM and the TGI (M14 melanoma) was over 100 µM.
